# Measurements: article PMC11234460, “In Silico Discovery of Stapled Peptide Inhibitor Targeting the Nur77‐PPARγ Interaction and Its Anti‐Breast‐Cancer Efficacy” (Advanced Science, 2024)
# Where a SMILES comes first, the peptide text is derived from it. Bridges are numbered along the chain shown (N, C = ends). [ ]: non-standard residue; d: D form. S5 = C=CCCC[C@](C)(N)C(=O)O
# Legend:
# Solubility test in PBS = assay type: physicochemical; settings: 1 mg in 50 µL, gradient diluted from 20 to 0.078125 mg mL^−1, OD at 600 nm (turbidity), plate reader
# Experimental: Mix 1 mg ST‐CY14 or Csn‐B (Shanghai Sunny Biotech) in 50 µL PBS buffer, and then transfer 40 µL the suspension to a 96‐well plate. The suspension was gradient diluted from 20 to 0. 07 8125 mg mL^−1. OD values were measured at 600 nm on a Cytation 5 (Biotek, USA) plate reader. PBS was set as a blank control.
# Nur77-PPARγ complex = target: T1, Nur77-PPARγ complex (Homo sapiens, UniProt P22736); assay: NanoBiT assay of Nur77-PPARγ complex formation in HEK293T cells; assay type: cell-based; settings: 1 × 10^−5 M peptide, 1 h, n = 3
# T1 construct: expressed in transfected cells; host or cells: HEK293T
# Experimental: HEK293T cells were seeded in a poly‐d‐lysine‐coated black 96‐well cell culture plate at 10 000 cells per well in 100 µL culture medium. The next day, the master mix of 100 ng receptor construct containing the PPARγ‐LargeBit and SmallBit‐Nur77 plasmids (w/w, 50 ng:50 ng) was diluted in Opti‐MEM Medium (Gibco, 11058‐021), then P3000 Reagent was added. Meanwhile, 0.15 µL Lipofectamine 3000 reagent (ThermoFisher, L3000015) was added to 5 µL Opti‐MEM Medium. Subsequently, diluted DNA was added to Lipofectamine 3000 reagent (V/V, 1:1) and incubated for 15 min at room temperature. A mixture containing the above plasmids and Lipofectamine 3000 was prepared and added to each well. After 24 h, the cells were treated with 1 × 10^−5 M peptides (TAT, T‐CY14, S‐CY14, and ST‐CY14) or variable concentrations of ST‐CY‐14 (0.1/0.2/0.5/1/2/5/10/20/40 × 10^−6 M) for 1 h. The culture medium was replaced with 90 µL Tyrode's solution (Solarbio, T1420). Then, 10 µL furimazine (5 × 10^−5 M) was added to each well and the luminescence signal was measured every 86 s for 1 h at 37 °C.
# [1] = CD spectroscopy, α-helicity; assay type: physicochemical; settings: 5 × 10^−5 M peptide in H2O, 25 °C, 1 mm cuvette, 185-260 nm
# Experimental: The detection wavelengths of the peptides were 214 and 254 nm. Solvent A: H2O (containing 0.1% TFA) and solvent B: acetonitrile (containing 0.1% TFA) were used as solvents in linear gradient mixtures. Peptide purification was performed by semi‐preparative HPLC using an XBridge Prep C18 column (19 × 250 mm, 10 µm particle size, flow rate of 20 mL min^−1). Solvents A and B were the same as those in the peptide analysis procedure. The peptides were dissolved in H2O to a final concentration of 5 × 10^−5 M. The purified peptide was detected using a mass spectrometer (6410 Triple Quad LC/MS, Agilent, USA) (Table S2, Supporting Information). The solvent was 80% methanol and 20% H2O (containing 0.1% formic acid). The CD spectra were obtained with a 1 mm quartz cuvette on a BRIGHT TIME Chirasca (Applied Photophysics, Britain) spectropolarimeter with a scan wavelength between 185–260 nm at 25 °C. The helicity of each peptide was calculated by the literature equation.^[ [24] ^]
# MCF7 cells [2] = assay: Western blot of Nur77, CD36 and FABP4; assay type: cell-based, human
# Experimental: (§1) MCF7 and MDA‐MB‐231 cells were treated with various concentrations of peptide. The cells were then collected and lysed in NP40 lysis buffer. Total protein was quantified using a BCA assay kit (Beyotime, P0010S). The proteins were separated by SDS‐PAGE and transferred onto a PVDF membrane. The PVDF membrane was blocked in TBST containing 5% non‐fat milk, and then incubated with primary antibodies overnight at 4 °C. Subsequently, membranes were incubated with horseradish peroxidase‐conjugated antirabbit or antimouse IgG secondary antibody for 1 h at room temperature. The membranes were analyzed by a Tanon‐5200 Multi Gel Imaging Analysis System (Tanon) and quantified by ImageJ software.
# MCF7 cells [3] = assay: Transwell cell migration analysis; assay type: cell-based, human; settings: MCF7, 12 h
# Experimental: (§2) 600 µL DMEM complete medium was added to the lower chamber of the Transwell. Next, 2×10^4 cells in 100 µL DMEM medium, containing 1, 2, 5, 10, or 2 × 10^−5 M peptides, were added to the upper chamber of the Transwell. The cells were incubated for 12 h at 37 °C and 5% CO2. After the incubation period, the medium was discarded, and the chamber was washed with PBS. The cells were then fixed with 4% paraformaldehyde for 20 min. The upper chamber was subsequently soaked in crystal violet for 20 min, washed with PBS, and observed under a microscope for analysis.
# α-chymotrypsin = assay: Protease stability in α-chymotrypsin solution; assay type: in vitro ADME; settings: α-chymotrypsin solution; α-chymotrypsin 0.5 ng µL^−1 in PBS (5 × 10^−2 M, 2 × 10^−3 M CaCl2, pH 7.4); 100 µL of 1 × 10^−3 M peptide + 1 mL enzyme; room temperature; 5-480 min; quenched with 1 M HCl; analytical HPLC at 214 nm
# Experimental: The peptides were dissolved in PBS (pH 7.4) to a final concentration of 1 × 10^−3 M. α‐Chymotrypsin was dissolved in PBS (5 × 10^−2 M, containing 2 × 10^−3 M CaCl2, pH 7.4) to a final concentration of 0.5 ng µL^−1. Subsequently, 100 µL peptides were incubated with α‐chymotrypsin (1 mL) at room temperature, and 100 µL of the digestion mixture was collected at different times (5/10/20/30/60/120/240/480 min) and added to a centrifuge tube containing 20 µL of 1 M HCl to quench the enzymatic reaction. The solution of α‐Chymotrypsin peptide fragments was monitored by analytical HPLC to determine the fraction of protease degradation at 214 nm.
# MDA-MB-231 cells [4] = assay: Scratch (wound-healing) assay; assay type: cell-based; settings: MDA-MB-231, 12 h
# Experimental: (§3) MCF7 and MDA‐MB‐231 cells were seeded in 6‐well plates and cultured overnight. Once the cell density reached 90%, a line was scratched along the center of the 6‐well plate and images were taken randomly in the scratch domain under a microscope. The cells in each well were then treated with peptides of varying concentrations for 12 h, after which images were taken again in the scratch domain. The formula used to calculate the scratch healing rate was as follows: Scratch healing rate (%) = [(Scratch area at 0 h – Scratch area at 12 h) […] Scratch area at 0 h] × 100%.
# MDA-MB-231 cells [5] = assay: Western blot of Nur77, CD36 and FABP4; assay type: cell-based
# Experimental: as §1
# MCF7 cells [6] = assay: Scratch (wound-healing) assay; assay type: cell-based, human; settings: MCF7, 12 h
# Experimental: as §3
# MDA-MB-231 cells [7] = assay: Transwell cell migration analysis; assay type: cell-based; settings: MDA-MB-231, 12 h
# Experimental: as §2
# T1 sequence (P22736 whole entry, one chain of several): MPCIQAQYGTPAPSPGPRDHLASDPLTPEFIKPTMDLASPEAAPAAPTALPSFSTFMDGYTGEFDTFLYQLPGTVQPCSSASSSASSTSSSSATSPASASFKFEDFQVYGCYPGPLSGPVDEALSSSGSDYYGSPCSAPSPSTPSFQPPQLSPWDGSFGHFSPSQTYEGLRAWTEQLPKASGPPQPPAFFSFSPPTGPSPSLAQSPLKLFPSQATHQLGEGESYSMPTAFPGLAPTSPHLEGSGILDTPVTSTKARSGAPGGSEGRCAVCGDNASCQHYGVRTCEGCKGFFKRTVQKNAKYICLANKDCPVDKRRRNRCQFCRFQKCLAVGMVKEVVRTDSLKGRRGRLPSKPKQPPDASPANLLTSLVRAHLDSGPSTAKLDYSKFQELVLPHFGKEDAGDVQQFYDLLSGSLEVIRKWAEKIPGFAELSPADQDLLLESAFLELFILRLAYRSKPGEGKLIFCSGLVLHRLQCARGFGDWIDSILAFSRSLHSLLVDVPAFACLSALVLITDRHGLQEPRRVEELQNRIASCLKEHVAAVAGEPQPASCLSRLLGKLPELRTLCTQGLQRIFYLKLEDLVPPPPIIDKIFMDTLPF
compound,measurement,setting,value
"CCCCCCCC(=O)c1c(O)cc(O)cc1CC(=O)OCC [Csn-B, cytosporone B, reference compound]",Solubility in PBS,Solubility test in PBS,≈ 1 mg mL^−1
C[C@@H](O)[C@@H]1NC(=O)[C@H](CCCNC(=N)N)NC(=O)[C@H](CCCNC(=N)N)NC(=O)[C@@](C)(NC(=O)[C@H](Cc2ccccc2)NC(=O)CNC(=O)[C@H](CCCCN)NC(=O)[C@H](CS)NC(=O)CNC(=O)[C@H](CCC(=O)O)NC(=O)[C@@H](N)CS)CCCC=CCCC[C@@](C)(C(=O)N[C@@H](CCCNC(=N)N)C(=O)N[C@@H](Cc2ccc(O)cc2)C(N)=O)NC1=O [S-CY14] (H-CEGCKGF[S5]RRT[S5]RY-NH2; staple 8-12),Effect on NanoBiT luminescence (Nur77-PPARγ complex),Nur77-PPARγ complex,minimal effects on the luminescence
same,α-Helicity (CD),[1],15.6%
CC[C@H](C)[C@H](NC(=O)[C@@H](NC(=O)[C@H](CCCNC(=N)N)NC(=O)[C@H](CCCNC(=N)N)NC(=O)[C@H](Cc1ccccc1)NC(=O)[C@H](Cc1ccccc1)NC(=O)CNC(=O)[C@H](CCCCN)NC(=O)[C@H](CS)NC(=O)CNC(=O)[C@H](CCC(=O)O)NC(=O)[C@@H](N)CS)[C@@H](C)O)C(=O)N[C@@H](CCCNC(=N)N)C(=O)N[C@@H](Cc1ccc(O)cc1)C(=O)N[C@@H](Cc1ccc(O)cc1)C(=O)NCC(=O)N[C@@H](CCCNC(=N)N)C(=O)N[C@@H](CCCCN)C(=O)N[C@@H](CCCCN)C(=O)N[C@@H](CCCNC(=N)N)C(=O)N[C@@H](CCCNC(=N)N)C(=O)N[C@@H](CCC(N)=O)C(=O)N[C@@H](CCCNC(=N)N)C(=O)N[C@@H](CCCNC(=N)N)C(=O)N[C@@H](CCCNC(=N)N)C(N)=O [T-CY14] (H-CEGCKGFFRRTIRYYGRKKRRQRRR-NH2),CD36 and FABP4 protein expression (immunoblot),MCF7 cells [2],"had some effect, but its efficacy was much lower"
same,Nur77 protein expression (immunoblot),MCF7 cells [2],increase in Nur77 expression
same,Transwell transmigration,MCF7 cells [3],inhibited the transmigration
same,half-life at 90.9 µM,α-chymotrypsin,4.94 min
same,Scratch healing,MDA-MB-231 cells [4],suppressed the scratch healing
same,CD36 and FABP4 protein expression (immunoblot),MDA-MB-231 cells [5],"had some effect, but its efficacy was much lower"
same,Nur77 protein expression (immunoblot),MDA-MB-231 cells [5],increase in Nur77 expression
same,Scratch healing,MCF7 cells [6],suppressed the scratch healing
same,Transwell transmigration,MDA-MB-231 cells [7],inhibited the transmigration
"N=C(N)NCCC[C@H](NC(=O)[C@H](CCCNC(=N)N)NC(=O)[C@H](CCCNC(=N)N)NC(=O)[C@H](CCC(N)=O)NC(=O)[C@H](CCCNC(=N)N)NC(=O)[C@H](CCCNC(=N)N)NC(=O)[C@H](CCCCN)NC(=O)[C@H](CCCCN)NC(=O)[C@H](CCCNC(=N)N)NC(=O)CNC(=O)[C@@H](N)Cc1ccc(O)cc1)C(N)=O [TAT, reference compound]",Effect on NanoBiT luminescence (Nur77-PPARγ complex),Nur77-PPARγ complex,minimal effects on the luminescence
